Assay results as given in patent publication US20240108002A1, “1-AMINO-1-CYCLOPROPANECARBOXYLIC ACID AND PROHYDROJASMON MIXTURES AND USES THEREOF” (Valent BioSciences LLC, priority 2022, published 2024).

Test system: Imperial Gala apples
Assay: Apple coloration in Imperial Gala variety, percent red pixel area after foliar spray
Format: in vivo
Conditions: for Average % Red Pixel Area: foliar spray, 34 hours post spray; for Fold Change From control: vs 0.05% Regulaid control
Procedure: 10 sets of unripened apples, Imperial Gala variety, harvested three weeks before the normal harvest date, were each foliar sprayed with either 1) 0.05% Regulaid® as a control, 2) 50 ppm prohydrojasmon, 3) 300 ppm prohydrojasmon, 4) 50 ppm ACC, 5) 300 ppm ACC or 6) a mixture of 50 ppm prohydrojasmon and 50 ppm ACC or 7) a mixture of 300 ppm prohydrojasmon and 300 ppm ACC. 34 hours post spray application percent red pixel area (shaded) was measured. Percent red pixel area is an indication of the coloration of the apple fruit.
To determine if the mixture provided unexpected results, the observed combined efficacy (“OCE”) was divided by the expected combined efficacy (“ECE”) wherein the ECE is calculated by the Abbott method: […]
wherein ECE is the expected combined efficacy and in which A and B are the fold change from control given by the single active ingredients. If the ratio between the OCE of the mixture and the ECE of the mixture is greater than 1, then greater than expected interactions are present in the mixture. (Gisi, Synergistic Interaction of Fungicides in Mixtures, The American Phytopathological Society, 86:11, 1273-1279,1996).

Row | Structure (SMILES) | Average % Red Pixel Area (single active at 50 ppm) [%] | Fold Change From control (single active at 50 ppm) | Average % Red Pixel Area (single active at 300 ppm) [%] | Fold Change From control (single active at 300 ppm)
1 | NC1(C(=O)O)CC1 [ACC, 1-amino-1-cyclopropanecarboxylic acid] | 7.02 | 0.03 | 4.66 | −0.31
2 | CCCCCC1C(=O)CCC1CC(=O)OCCC (centres unmarked) [prohydrojasmon] | 15.84 | 1.33 | 21.03 | 2.09
